Assay results as given in ChEMBL document CHEMBL1134380, “Discovery and optimization of a novel series of thrombin receptor (par-1) antagonists: potent, selective peptide mimetics based on indole and indazole templates” (J Med Chem, 2001).

Experiments:
[1] = Proliferation by RASMC proliferation assay at 0.8 nM alpha thrombin.; design: unit not given here
[2] = Calcium flux by RASMC Calcium mobilization assay at 2.0 nM alpha thrombin.; format: functional; design: unit not given here
[3] = In vitro antagonist activity against SFLLRN-NH2 induced gel-filtered platelet (GFP) aggregation at 2 uM; format: functional
[4] = In vitro antagonist activity against U-46,619 induced gel-filtered Platelet (GFP) aggregation at 50 uM; NA=Inactive; format: functional
[5] = target: T1, Proteinase-activated receptor 1 (Homo sapiens, UniProt P25116); assay: Binding Affinity of ligand against Protease-activated Receptor (PAR-1) using [3H]-s-(p-F-Phe)-homoarginine-L-homoarginine-KY-NH2, 10 nM (Kd= 15 nM)
T1 sequence (P25116 whole entry): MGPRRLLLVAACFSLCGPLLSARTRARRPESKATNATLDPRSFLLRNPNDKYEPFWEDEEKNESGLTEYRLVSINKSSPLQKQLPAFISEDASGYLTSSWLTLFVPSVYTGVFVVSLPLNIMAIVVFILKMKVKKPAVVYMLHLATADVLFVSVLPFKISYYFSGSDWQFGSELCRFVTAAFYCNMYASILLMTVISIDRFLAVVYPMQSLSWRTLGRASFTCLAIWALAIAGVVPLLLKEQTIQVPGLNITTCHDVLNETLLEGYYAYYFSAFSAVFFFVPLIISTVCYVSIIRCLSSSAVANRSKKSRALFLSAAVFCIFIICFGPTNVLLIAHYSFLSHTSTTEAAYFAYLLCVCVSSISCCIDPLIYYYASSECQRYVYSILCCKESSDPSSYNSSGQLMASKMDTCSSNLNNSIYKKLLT

[6] = target: T1, Proteinase-activated receptor 1; assay: Binding affinity against Protease-activated receptor (PAR-1) using [3H]-s-(p-F-Phe)-homoarginine-L-homoarginine-KY-NH2, 10 nM (Kd= 15 nM)
[7] = In vitro antagonist activity against collagen induced gel-filtered platelet (GFP) aggregation at 3 ug/mL
[8] = Calcium flux by HMVEC Calcium mobilization assay at 2.0 nM alpha thrombin.; format: functional; design: unit not given here
[9] = In vitro antagonist activity against U-46,619 induced gel-filtered Platelet (GFP) aggregation at 0.3 uM; format: functional
[10] = in vitro antagonist activity against U-46,619 induced gel-filtered Platelet (GFP) aggregation at 0.3 uM; format: functional

Row | IC50 [3] [nM] | IC50 [5] [nM] | IC50 [6] [nM] | IC50 [7] [µM] | IC50 [9] [µM] | IC50 [10] [µM] | Compound | Proliferation [1] | Ca2+ flux [2] | IC50 [4] | Ca2+ flux [8]
1 | 110 | 150 | – | – | – | – | NCC[C@H](NC(=O)[C@H](Cc1ccc(F)c(F)c1)NC(=O)Nc1ccc2c(CN3CCCC3)nn(Cc3c(Cl)cccc3Cl)c2c1)C(=O)NCc1ccccc1 [RWJ-58259] | 2.3 | 0.07 | Not Active | –
2 | 300 | – | 700 | 12.7 | – | – | N=C(N)NCCC[C@H](NC(=O)[C@H](Cc1ccccc1)NC(=O)Nc1ccc2c(CN3CCCC3)cn(Cc3ccc(F)cc3)c2c1)C(=O)NCc1ccccc1 | – | – | – | –
3 | 2200 | – | 10700 | 41.4 | 49.1 | – | COc1ccc(C[C@H](NC(=O)Nc2ccc3c(CNC4CCCC4)cn(Cc4ccc(F)cc4)c3c2)C(=O)N[C@@H](CCCN=C(N)N)C(=O)NCc2ccccc2)cc1 | – | – | – | –
4 | 360 | – | 40 | – | – | 13.3 | N=C(N)NCCC[C@H](NC(=O)[C@H](Cc1ccc(F)c(F)c1)NC(=O)Nc1ccc2c(CN3CCCC3)cn(Cc3c(Cl)cccc3Cl)c2c1)C(=O)NCc1ccncc1 | 6.5 | 0.21 | – | 0.17
5 | 3200 | – | 2400 | 24.2 | 25.5 | – | COc1ccc(C[C@H](NC(=O)Nc2ccc3c(CN4CCCC4)cn(Cc4ccc(OC(F)(F)F)cc4)c3c2)C(=O)N[C@@H](CCCN=C(N)N)C(=O)NCc2ccccc2)cc1 | – | – | – | –

Row | Compound | IC50 [3] [nM] | IC50 [5] [nM] | IC50 [6] [nM] | IC50 [7] [µM] | IC50 [9] [µM] | IC50 [10] [µM] | Proliferation [1] | Ca2+ flux [2] | IC50 [4] | Ca2+ flux [8]
6 | N=C(N)NCCC[C@H](NC(=O)[C@H](Cc1ccc(F)c(F)c1)NC(=O)Nc1ccc2c(CN3CCCC3)cn(Cc3c(Cl)cccc3Cl)c2c1)C(=O)NCc1ccccc1 | 180 | – | 820 | – | – | – | 2.4 | 0.13 | Not Active | 0.09
7 | COc1ccc(C[C@H](NC(=O)Nc2ccc3c(CN4CCCC4)cn(Cc4c(Cl)cccc4Cl)c3c2)C(=O)N[C@@H](CCCNC(=N)N)C(=O)NCc2ccccc2)cc1 [RWJ-54003] | 300 | – | 1300 | 46.3 | – | – | 7.3 | 0.93 | Not Active | 0.33
8 | COc1ccc(C[C@H](NC(=O)Nc2ccc3c(CN4CCCC4)cn(Cc4ccc(F)cc4)c3c2)C(=O)N[C@@H](CCCN=C(N)N)C(=O)NCc2ccccc2)cc1 | 270 | – | 2200 | – | – | – | > 30 | 7.8 | Not Active | 0.54
